# Test system: human dermal fibroblasts
# Test: Adipogenesis (Oil Red O) of fibroblasts detached with trypsin and seeded at high density
# Type: cell-based
# Procedure: After incubation for about 12-21 days in adipogenic medium, the medium is removed, and cells are fixed in 10% formaldehyde solution in aqueous phosphate buffer for at least 1 hour. Cells are then washed with 60% isopropanol and stained with a working solution of Oil Red 0 solution (in 60% isopropanol, see below for preparation) for 10 minutes. The cells are then washed several times with water, and destained in 100% isopropanol for 15 minutes. The destain solution is removed and the optical density of the solution is measured at 500-510 nm.
# In a this set of experiments for producing cells having the ability to differentiate into different cell types, fibroblasts are either incubated in media without trypsin or containing trypsin and then cultured at different lengths of time under high density conditions of about 100,000 cells per well/plate or at about 3703.7 cells per mm^2 surface area of the well/plate before adherence of the cells in a high density plating medium. The cells produced by this method are then tested for their ability to differentiate into adipocytes, as determined by the accumulation of fat.
# Fresh human dermal fibroblasts derived from adult skin or from foreskin are purchased from PromoCell® (Banksia Scientific Company, QLD). […]
# Test cells are recovered from culture and seeded at concentrations of about 100,000 cells per well/plate or at about 3703.7 cells per mm^2 surface area of the well/plate before attachment of the cells to the plate/well directly in 200 to 400 μl high density plating medium (e.g., Medium 199 containing 170 nM insulin, 0.5 mM 3-isobutyl-1-methylxanthine, 0.2 mM indomethacin, 1 μM dexamethasone, and 15% rabbit serum) for a time and under conditions sufficient for an optimum number of progenitor cells to be produced e.g., for up to about 24 hours or until adherence is achieved, i.e., a shorter time than required for cells to become adherent and/or as determined by analysis of cell marker expression and/or by the ability of aliquots of cells to subsequently undergo differentiation. […]
substance,measurement,setting,value
trypsin,ability to differentiate into adipocytes,"detached with 0.12% trypsin, seeded at about 100,000 cells per well in high density plating medium before adherence, then adipogenic medium, cells without trypsin gave no detectable adipocytes",capable of differentiating into adipocytes
same,optimum time in adipogenic medium for assuming ability to differentiate into adipocytes,numbers of fat-producing cells assayed from day 10 to day 21 in adipogenic medium,10 to 14 days
same,time from incubation with trypsin to high density seeding at which adipocytes are apparent,seeding directly into high density plating medium,≤ 6 h
